Test results from PubChem BioAssay AID256 (DTP/NCI, 2004).
Inconclusive results and toxic doses are left out. Rule for the calls: active = survival T/C of 150% or more; inactive = T/C below 125% in these data.

Tested on: CD2F1 mice, L1210 leukemia ip, survival T/C
Experiment: NCI In Vivo Anticancer Drug Screen. Data for tumor model L1210 Leukemia (intraperitoneal) in CD2F1 (CDF1) mice
Settings: higher = longer survival
In short: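 Transplantable tumor in mice; compound-treated vs vehicle-treated groups. Read-out = treated/control ratio of the measured endpoint.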

[1] = endpoint: mean survival time, dose: 50.0 mg/kg/injection, schedule: Q04DX003 (ip), vehicle: saline with Tween-80
[2] = endpoint: mean survival time, dose: 100.0 mg/kg/injection, schedule: Q01DX001 (ip), vehicle: saline with Tween-80
[3] = endpoint: mean survival time, dose: 200.0 mg/kg/injection, schedule: Q01DX001 (ip), vehicle: saline with Tween-80
[4] = endpoint: mean survival time, dose: 400.0 mg/kg/injection, schedule: Q01DX001 (ip), vehicle: saline with Tween-80
[5] = endpoint: mean survival time, dose: 100.0 mg/kg/injection, schedule: Q04DX003 (ip), vehicle: saline with Tween-80
[6] = endpoint: mean survival time, dose: 100.0 mg/kg/injection, schedule: Q01DX009 (ip), vehicle: other
[7] = endpoint: mean survival time, dose: 200.0 mg/kg/injection, schedule: Q01DX009 (ip), vehicle: other
[8] = endpoint: mean survival time, dose: 400.0 mg/kg/injection, schedule: Q01DX009 (ip), vehicle: other

Measured: T/C

CCc1ccc(C2=C(O)C(=O)C(c3ccccc3)=C(O)C2=O)cc1
inactive: endpoint: mean survival time, dose: 3.12 mg/kg/injection, schedule: Q01DX009 (ip), vehicle: Klucel (hydroxypropylcellulose) (HPC) 97 % of control | endpoint: mean survival time, dose: 6.25 mg/kg/injection, schedule: Q01DX009 (ip), vehicle: Klucel (hydroxypropylcellulose) (HPC) 100 % of control | endpoint: mean survival time, dose: 12.5 mg/kg/injection, schedule: Q01DX009 (ip), vehicle: Klucel (hydroxypropylcellulose) (HPC) 100 % of control | endpoint: mean survival time, dose: 25.0 mg/kg/injection, schedule: Q01DX009 (ip), vehicle: Klucel (hydroxypropylcellulose) (HPC) 97 % of control | endpoint: mean survival time, dose: 50.0 mg/kg/injection, schedule: Q01DX009 (ip), vehicle: Klucel (hydroxypropylcellulose) (HPC) 100 % of control | endpoint: mean survival time, dose: 100.0 mg/kg/injection, schedule: Q01DX009 (ip), vehicle: Klucel (hydroxypropylcellulose) (HPC) 95 % of control

O=C1CC[C@@H]2CCCC[C@@H]2C1
inactive: endpoint: mean survival time, dose: 12.5 mg/kg/injection, schedule: Q01DX009 (ip), vehicle: saline with Tween-80 96 % of control | endpoint: mean survival time, dose: 25.0 mg/kg/injection, schedule: Q01DX009 (ip), vehicle: saline with Tween-80 92 % of control | endpoint: mean survival time, dose: 50.0 mg/kg/injection, schedule: Q01DX009 (ip), vehicle: saline with Tween-80 98 % of control | [1] 98 % of control

CN1COc2c(n(C)c(=O)[nH]c2=O)C1
inactive: endpoint: median survival time, dose: 50.0 mg/kg/injection, schedule: Q01DX005 (ip), vehicle: saline 98 % of control | endpoint: median survival time, dose: 50.0 mg/kg/injection, schedule: Q01DX005 (ip), vehicle: suspension in saline 101 % of control | endpoint: median survival time, dose: 100.0 mg/kg/injection, schedule: Q01DX005 (ip), vehicle: saline 98 % of control | endpoint: median survival time, dose: 100.0 mg/kg/injection, schedule: Q01DX005 (ip), vehicle: suspension in saline 103 % of control | endpoint: median survival time, dose: 200.0 mg/kg/injection, schedule: Q01DX005 (ip), vehicle: saline 101 % of control | endpoint: median survival time, dose: 200.0 mg/kg/injection, schedule: Q01DX005 (ip), vehicle: suspension in saline 102 % of control | endpoint: median survival time, dose: 400.0 mg/kg/injection, schedule: Q01DX005 (ip), vehicle: saline 109 % of control | endpoint: median survival time, dose: 400.0 mg/kg/injection, schedule: Q01DX005 (ip), vehicle: suspension in saline 119 % of control | endpoint: median survival time, dose: 800.0 mg/kg/injection, schedule: Q01DX005 (ip), vehicle: saline 108 % of control | endpoint: median survival time, dose: 800.0 mg/kg/injection, schedule: Q01DX005 (ip), vehicle: suspension in saline 116 % of control

FCCc1cccc(C(F)(F)F)c1
inactive: [2] 103 % of control | endpoint: mean survival time, dose: 100.0 mg/kg/injection, schedule: Q04DX003 (ip), vehicle: saline sonified 94 % of control | [3] 101 % of control | endpoint: mean survival time, dose: 200.0 mg/kg/injection, schedule: Q04DX003 (ip), vehicle: saline sonified 98 % of control | [4] 101 % of control | endpoint: mean survival time, dose: 400.0 mg/kg/injection, schedule: Q04DX003 (ip), vehicle: saline sonified 98 % of control

COC(=O)COc1ccccc1Cl
inactive: [2] 102 % of control | [3] 102 % of control | [4] 104 % of control

C1CC[N-]CC1.C1CC[N-]CC1.N#C[S-].N#C[S-].[Cu]
inactive: endpoint: mean survival time, dose: 2.5 mg/kg/injection, schedule: Q04DX003 (ip), vehicle: saline with Tween-80 98 % of control | endpoint: mean survival time, dose: 5.0 mg/kg/injection, schedule: Q04DX003 (ip), vehicle: saline with Tween-80 92 % of control

COc1cc(-c2cc(OC)c(O)c(OC)c2)cc(OC)c1O
inactive: [2] 96 % of control | [3] 101 % of control | [4] 90 % of control

[O-][n+]1c2ccccc2c(Oc2ccccc2)c2ccc3ccccc3c21
inactive: endpoint: mean survival time, dose: 25.0 mg/kg/injection, schedule: Q04DX003 (ip), vehicle: saline with Tween-80 98 % of control | [1] 95 % of control | [5] 86 % of control

CCOC(=O)C(C(=O)OCC)C(=O)c1cccc2c1ccc1ccccc12
inactive: endpoint: mean survival time, dose: 100.0 mg/kg/injection, schedule: Q01DX005 (ip), vehicle: saline with Tween-80 95 % of control | endpoint: mean survival time, dose: 100.0 mg/kg/injection, schedule: Q01DX009 (ip), vehicle: saline with Tween-80 104 % of control | endpoint: mean survival time, dose: 200.0 mg/kg/injection, schedule: Q01DX005 (ip), vehicle: saline with Tween-80 95 % of control | endpoint: mean survival time, dose: 200.0 mg/kg/injection, schedule: Q01DX009 (ip), vehicle: saline with Tween-80 93 % of control | endpoint: mean survival time, dose: 400.0 mg/kg/injection, schedule: Q01DX005 (ip), vehicle: saline with Tween-80 95 % of control | endpoint: mean survival time, dose: 400.0 mg/kg/injection, schedule: Q01DX009 (ip), vehicle: saline with Tween-80 86 % of control

CN(C)c1cccc(C(C)(C)C)n1
inactive: endpoint: mean survival time, dose: 12.5 mg/kg/injection, schedule: Q04DX002 (ip), vehicle: saline 98 % of control | endpoint: mean survival time, dose: 25.0 mg/kg/injection, schedule: Q04DX002 (ip), vehicle: saline 106 % of control | endpoint: mean survival time, dose: 50.0 mg/kg/injection, schedule: Q04DX002 (ip), vehicle: saline 95 % of control

CCN(CC)C(=O)C(Cc1ccc(OC)c(OC)c1)C(Cc1ccc(OC)c(OC)c1)C(=O)O (stereo unspecified)
inactive: [6] 98 % of control | [7] 98 % of control | [8] 95 % of control

CSc1ncnc2c1c1c(N)ncnc1n2C1OC(CO)C(O)C1O (stereo unspecified)
inactive: endpoint: mean survival time, dose: 12.5 mg/kg/injection, schedule: Q01DX005 (ip), vehicle: other 107 % of control | endpoint: mean survival time, dose: 25.0 mg/kg/injection, schedule: Q01DX005 (ip), vehicle: other 101 % of control | endpoint: mean survival time, dose: 50.0 mg/kg/injection, schedule: Q01DX005 (ip), vehicle: other 95 % of control | endpoint: mean survival time, dose: 100.0 mg/kg/injection, schedule: Q01DX005 (ip), vehicle: other 103 % of control | endpoint: mean survival time, dose: 200.0 mg/kg/injection, schedule: Q01DX005 (ip), vehicle: other 109 % of control

O=Cc1cc(Cl)cc(Cl)c1O.O=Cc1cc(Cl)cc(Cl)c1O.[Co]
inactive: [1] 90 % of control | endpoint: mean survival time, dose: 50.0 mg/kg/injection, schedule: Q04DX003 (ip), vehicle: saline 100 % of control | [5] 89 % of control | endpoint: mean survival time, dose: 100.0 mg/kg/injection, schedule: Q04DX003 (ip), vehicle: saline 96 % of control | endpoint: mean survival time, dose: 200.0 mg/kg/injection, schedule: Q04DX003 (ip), vehicle: saline with Tween-80 94 % of control | endpoint: mean survival time, dose: 200.0 mg/kg/injection, schedule: Q04DX003 (ip), vehicle: saline 100 % of control | endpoint: mean survival time, dose: 400.0 mg/kg/injection, schedule: Q04DX003 (ip), vehicle: saline with Tween-80 103 % of control | endpoint: mean survival time, dose: 400.0 mg/kg/injection, schedule: Q04DX003 (ip), vehicle: saline 96 % of control

CC(/C=C/C=C/c1ccccc1)=N\O
inactive: endpoint: mean survival time, dose: 100.0 mg/kg/injection, schedule: Q01DX001 (ip), vehicle: Klucel (hydroxypropylcellulose) (HPC) 101 % of control | endpoint: mean survival time, dose: 200.0 mg/kg/injection, schedule: Q01DX001 (ip), vehicle: Klucel (hydroxypropylcellulose) (HPC) 110 % of control | endpoint: mean survival time, dose: 400.0 mg/kg/injection, schedule: Q01DX001 (ip), vehicle: Klucel (hydroxypropylcellulose) (HPC) 104 % of control

CC(C)(C)OC(=O)CCC(NC(=O)OCc1ccccc1)C(=O)O (stereo unspecified)
inactive: [1] 93 % of control | endpoint: mean survival time, dose: 100.0 mg/kg/injection, schedule: Q01DX001 (ip), vehicle: saline sonified 103 % of control | [5] 94 % of control | endpoint: mean survival time, dose: 200.0 mg/kg/injection, schedule: Q01DX001 (ip), vehicle: saline sonified 109 % of control

Cc1ccc(S(=O)(=O)NC(=O)C(=[N+]=[N-])c2ccc([N+](=O)[O-])cc2)cc1
inactive: endpoint: median survival time, dose: 25.0 mg/kg/injection, schedule: Q04DX002 (ip), vehicle: saline with Tween-80 100 % of control | endpoint: median survival time, dose: 50.0 mg/kg/injection, schedule: Q04DX002 (ip), vehicle: saline with Tween-80 90 % of control | endpoint: median survival time, dose: 100.0 mg/kg/injection, schedule: Q04DX002 (ip), vehicle: saline with Tween-80 90 % of control | endpoint: median survival time, dose: 200.0 mg/kg/injection, schedule: Q04DX002 (ip), vehicle: saline with Tween-80 90 % of control

CCOC(=O)Nc1cc(F)ccc1F
inactive: [6] 103 % of control | [7] 94 % of control | [8] 95 % of control
